Earlier results on four compounds are cited in US12357667B2, “Nutraceutical formulations to prevent, treat, and inhibit excess cytokines, SARS-CoV-2 spike proteins, and mRNA vaccine spike proteins” (priority 2021, dated 2025).

In series [1] the test system is variant spikes from the SARS-CoV-2 alpha and delta strains.
The test system of series [2] is SARS-CoV-2 alpha variant B.1.1.7 and the beta variant B.1.351. Particulars: alpha variant B.1.1.7 and beta variant B.1.351.

As for `CC(=O)N[C@@H](CS)C(=O)O` [N-acetylcysteine, reference compound], the “activity of variant spikes” value in series [1] is “suppressed”.
`C=C(C)[C@@H]1CCC(C)=C[C@H]1c1c(O)cc(CCCCC)c(C(=O)O)c1O` [cannabidiolic acid]: in series [2], the effectiveness against variants result is “equally effective”.
For the compound `CCCCCc1cc(O)c(C/C=C(\C)CCC=C(C)C)c(O)c1C(=O)O` [cannabigerolic acid], in series [2], the effectiveness against variants entry is given as “equally effective”.
For `N[C@@H](CCC(=O)N[C@@H](CS)C(=O)NCC(=O)O)C(=O)O` [glutathione, γ-glutamyl cysteinyl glycine], the “activity of variant spikes” value in series [1] is reported as “suppressed”.
